Measured values published in ChEMBL document CHEMBL1201862, “PubChem BioAssay data set” (2004).
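Interpolation was linear, between the two tested concentrations surrounding the appropriate level; five concentrations were tested over 48 hours in 96-well plates. Abbreviation: GI50, concentration required for 50% inhibition of growth.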 Active and inactive are the calls of the source. Cut-off read from the data, not from the text of the source: active = GI50 up to about 1.1 µM and inactive = higher.

Experiments:
Assay in all cases: growth of human tumour cells (NCI), 48 h
[1] = system: DLD-1
[2] = system: HOP-18
[3] = system: M19-MEL
[4] = system: RXF 631
[5] = system: SNB-78
[6] = system: DMS-114
[7] = system: DMS-273
[8] = system: KM-20L2
[9] = system: XF498

Structure (SMILES) | GI50 [1] | GI50 [2] | GI50 [3] | GI50 [4] | GI50 [5] | GI50 [6] | GI50 [7] | GI50 [8] | GI50 [9]
COc1ccc2nc(-c3ccccn3)cc(O)c2c1 | 52.6 µM (inactive) | 61.7 µM (inactive) | 31.8 µM (inactive) | 85.1 µM (inactive) | 99.3 µM (inactive) | – | – | – | –
CCCCCCCCCCCCCC(=O)OC(/C=C/C(C)C)C(O)C(O)C(OC)C(=O)NC1CCCCNC1=O (stereo unspecified) | 0.637 µM (active) | 2.23 µM (inactive) | – | – | 2.82 µM (inactive) | 0.615 µM (active) | 0.0916 µM (active) | 1.46 µM (inactive) | 1.78 µM (inactive)
N/N=c1\c2ccccc2c2cc3c(cc12)/c(=N/N)c1ccccc13 | > 100 µM (inactive) | > 100 µM (inactive) | > 100 µM (inactive) | > 100 µM (inactive) | > 100 µM (inactive) | > 100 µM (inactive) | > 100 µM (inactive) | > 100 µM (inactive) | –
CC(=O)NC1C(OCc2ccccc2)OC(COC(=O)CCCCCCCCCCNC(=O)c2cccc3c(=O)c4ccccc4[nH]c23)C(O)C1OC(C)C(=O)NC(C)C(=O)NC(CCC(N)=O)C(N)=O (stereo unspecified) | 95.9 µM (inactive) | 59 µM (inactive) | 75.5 µM (inactive) | 19.5 µM (inactive) | 99.1 µM (inactive) | 36.3 µM (inactive) | 57.8 µM (inactive) | > 100 µM (inactive) | 38.7 µM (inactive)
CC(C)C/C(CC(=O)CCC(=O)Nc1ccccc1[N+](=O)[O-])=N\NC(=O)c1cc2ccccc2cc1O | 55.2 µM (inactive) | 21.8 µM (inactive) | 24.2 µM (inactive) | 31.2 µM (inactive) | – | 36.1 µM (inactive) | – | 32.1 µM (inactive) | 30.7 µM (inactive)
C/C=C(\CCOS(=O)(=O)c1ccc(C)cc1)[Si](C)(C)C | > 100 µM (inactive) | > 100 µM (inactive) | > 100 µM (inactive) | > 100 µM (inactive) | > 100 µM (inactive) | > 100 µM (inactive) | > 100 µM (inactive) | > 100 µM (inactive) | > 100 µM (inactive)
O=c1c2ccccc2nc(-c2ccccc2)n1NC(=S)Nc1ccc(Cl)cc1 | > 100 µM (inactive) | > 100 µM (inactive) | 52.6 µM (inactive) | – | – | 34.4 µM (inactive) | > 100 µM (inactive) | – | –
CCOC(=O)C1C(c2ccc([N+](=O)[O-])cc2)NC(c2ccc([N+](=O)[O-])cc2)C(C(=O)OC)S1(=O)=O (stereo unspecified) | > 100 µM (inactive) | > 100 µM (inactive) | > 100 µM (inactive) | – | > 100 µM (inactive) | > 100 µM (inactive) | > 100 µM (inactive) | > 100 µM (inactive) | > 100 µM (inactive)
COc1ccc(C2CC(c3cc(C)ccc3O)=NC(N)=N2)cc1 (stereo unspecified) | > 100 µM (inactive) | > 100 µM (inactive) | > 100 µM (inactive) | – | > 100 µM (inactive) | > 100 µM (inactive) | > 100 µM (inactive) | > 100 µM (inactive) | > 100 µM (inactive)
O=C(CSc1nnc(-c2ccc(/N=C\c3ccc(Cl)cc3)cc2)o1)Nc1ccc(Cl)cc1 | – | > 100 µM (inactive) | > 100 µM (inactive) | – | > 100 µM (inactive) | > 100 µM (inactive) | > 100 µM (inactive) | > 100 µM (inactive) | > 100 µM (inactive)
COC1OC2COC(C)(C)OC2C(OC(C)=O)C1NC(=O)N(CCCl)N=O (stereo unspecified) | > 100 µM (inactive) | > 100 µM (inactive) | > 100 µM (inactive) | – | > 100 µM (inactive) | > 100 µM (inactive) | > 100 µM (inactive) | > 100 µM (inactive) | > 100 µM (inactive)
N#C/C(=C/c1cccnc1)C(=O)c1ccccc1 | > 100 µM (inactive) | > 100 µM (inactive) | > 100 µM (inactive) | – | > 100 µM (inactive) | > 100 µM (inactive) | > 100 µM (inactive) | > 100 µM (inactive) | > 100 µM (inactive)
CCOC12SC(Nc3ccc(C)cc3)=NN1C(=S)N(C)N=C2C (stereo unspecified) | > 100 µM (inactive) | > 100 µM (inactive) | > 100 µM (inactive) | – | – | > 100 µM (inactive) | > 100 µM (inactive) | > 100 µM (inactive) | –
Cc1cc2c([nH]c3ccccc32)c2c1OC(C)(C)C1C3CC(C)(C)Oc4c(C)cc5c6ccccc6n(c5c43)C21 (stereo unspecified) | – | > 100 µM (inactive) | > 100 µM (inactive) | – | > 100 µM (inactive) | > 100 µM (inactive) | > 100 µM (inactive) | > 100 µM (inactive) | –
O=C(COC(=O)c1cccc2c(=O)c3ccccc3[nH]c12)Nc1ccccc1 | 65 µM (inactive) | > 100 µM (inactive) | 33.6 µM (inactive) | 28.5 µM (inactive) | – | 22.3 µM (inactive) | 58.1 µM (inactive) | 79.6 µM (inactive) | 32.1 µM (inactive)
CC(=O)OCC1C(=O)OCC1C(=O)N1Cc2cc3ccccc3nc2C1 (stereo unspecified) | 1.61 µM (inactive) | 2.47 µM (inactive) | 8.05 µM (inactive) | – | – | 13.6 µM (inactive) | 5.09 µM (inactive) | 3.84 µM (inactive) | 1.82 µM (inactive)
N#Cc1c2ccccc2cn1-c1ccc(F)cc1 | 48.8 µM (inactive) | – | 37.8 µM (inactive) | – | – | 16.2 µM (inactive) | > 10 µM (inactive) | 31.9 µM (inactive) | 42.2 µM (inactive)
CSc1nc(SC)c2c(C(N)=S)n[nH]c2n1 | 37 µM (inactive) | – | 28.2 µM (inactive) | 32 µM (inactive) | 31.8 µM (inactive) | 30.1 µM (inactive) | 30 µM (inactive) | 23.1 µM (inactive) | –
N#Cc1c2c(c(N=[N+]=[N-])n3c1nc1ccccc13)CCCC2 | 1.39 µM (inactive) | – | 1.75 µM (inactive) | – | 3.56 µM (inactive) | 1.19 µM (inactive) | 2.37 µM (inactive) | 2.24 µM (inactive) | 1.75 µM (inactive)
Cc1cc2c(c3nocc13)C(=O)c1ccccc1C2=O | > 100 µM (inactive) | > 100 µM (inactive) | > 100 µM (inactive) | > 100 µM (inactive) | – | > 100 µM (inactive) | > 100 µM (inactive) | > 100 µM (inactive) | –
COc1cc(/C=C/c2ccc(OC)c(OC)c2OC)cc(OC)c1OC | 18.3 µM (inactive) | 17.5 µM (inactive) | 20.2 µM (inactive) | 20 µM (inactive) | 17.3 µM (inactive) | 18.2 µM (inactive) | 16.4 µM (inactive) | 20.2 µM (inactive) | 25.5 µM (inactive)
[N-]=[N+]=NC1C(Br)C(=O)NC(=O)N1[C@H]1C[C@H](O)[C@@H](CO)O1 (stereo partly specified) | > 100 µM (inactive) | – | – | – | > 100 µM (inactive) | – | > 100 µM (inactive) | > 100 µM (inactive) | > 100 µM (inactive)
COc1ccc2nc3ccccc3c(NCCCCCN(CCCl)CCCl)c2c1 | – | 0.306 µM (active) | 0.116 µM (active) | – | 0.277 µM (active) | 0.073 µM (active) | < 0.0365 µM (active) | 0.0647 µM (active) | 0.051 µM (active)
COc1cc2c(c3c1c(=O)c1ccccc1n3C)C=CC(C)(C)O2 [ACRONINE] | > 100 µM (inactive) | 56 µM (inactive) | 72.3 µM (inactive) | – | > 100 µM (inactive) | 45.4 µM (inactive) | 23.3 µM (inactive) | 49.9 µM (inactive) | –
